Experimental data as given in ChEMBL document CHEMBL1140493, “Quantitative structure-activity relationship studies for prediction of antimicrobial activity of synthesized 2,4-hexadienoic acid derivatives” (Bioorg Med Chem Lett, 2007).
Values after ≈ are worked out from the molar mass of the structure shown.

Assays:
Bacillus subtilis = test: Antimicrobial activity against Bacillus subtilis after 24 hrs by twofold serial dilution method; assay type: functional; settings: read-out: -Log MIC
[1] = Partition coefficient, log P of the compound; settings: octanol/water
Candida albicans = test: Antifungal activity against Candida albicans after 2 days by twofold serial dilution method; assay type: functional; settings: 48 h, read-out: -Log MIC
Staphylococcus aureus = test: Antimicrobial activity against Staphylococcus aureus after 24 hrs by twofold serial dilution method; assay type: functional; settings: read-out: -Log MIC
Aspergillus niger = test: Antifungal activity against Aspergillus niger after 7 days by twofold serial dilution method; assay type: functional; settings: 168 h, read-out: -Log MIC
Escherichia coli = test: Antimicrobial activity against Escherichia coli after 24 hrs by twofold serial dilution method; assay type: functional; settings: read-out: -Log MIC

| SMILES | MIC (Bacillus subtilis) | logP [1] | MIC (Candida albicans) | MIC (Staphylococcus aureus) | MIC (Aspergillus niger) | MIC (Escherichia coli) |
| --- | --- | --- | --- | --- | --- | --- |
| C/C=C/C=C/C(=O)NN | 100 µM (≈ 12.6 µg/mL) | 0.59 | 100 µM (≈ 12.6 µg/mL) |  |  |  |
| C/C=C/C=C/C(=O)N1CCCCC1 | 61.7 µM (≈ 11.1 µg/mL) | 1.82 | 69.2 µM (≈ 12.4 µg/mL) | 77.6 µM (≈ 13.9 µg/mL) | 63.1 µM (≈ 11.3 µg/mL) |  |
| C/C=C/C=C/C(=O)Nc1cccc([N+](=O)[O-])c1 | 34.7 µM (≈ 8.06 µg/mL) | 2.49 | 47.9 µM (≈ 11.1 µg/mL) | 50.1 µM (≈ 11.6 µg/mL) | 39.8 µM (≈ 9.24 µg/mL) | 60.3 µM (≈ 14 µg/mL) |
| C/C=C/C=C/C(=O)OC(C)(C)C | 50.1 µM (≈ 8.43 µg/mL) | 2.33 | 53.7 µM (≈ 9.03 µg/mL) | 74.1 µM (≈ 12.5 µg/mL) | 74.1 µM (≈ 12.5 µg/mL) | 83.2 µM (≈ 14 µg/mL) |
| C/C=C/C=C/C(=O)OCCCC | 74.1 µM (≈ 12.5 µg/mL) | 2.71 | 74.1 µM (≈ 12.5 µg/mL) | 100 µM (≈ 16.8 µg/mL) | 74.1 µM (≈ 12.5 µg/mL) |  |
| C=CCOC(=O)/C=C/C=C/C | 79.4 µM (≈ 12.1 µg/mL) | 2.24 | 81.3 µM (≈ 12.4 µg/mL) |  | 79.4 µM (≈ 12.1 µg/mL) |  |
| C/C=C/C=C/C(=O)OCCCCC | 63.1 µM (≈ 11.5 µg/mL) | 3.1 | 50.1 µM (≈ 9.13 µg/mL) | 79.4 µM (≈ 14.5 µg/mL) | 69.2 µM (≈ 12.6 µg/mL) | 100 µM (≈ 18.2 µg/mL) |
| C/C=C/C=C/C(=O)NCCC | 72.4 µM (≈ 11.1 µg/mL) | 1.66 | 81.3 µM (≈ 12.5 µg/mL) | 100 µM (≈ 15.3 µg/mL) | 100 µM (≈ 15.3 µg/mL) |  |
| C/C=C/C=C/C(=O)Nc1ccc([N+](=O)[O-])cc1 | 38.9 µM (≈ 9.03 µg/mL) | 2.49 | 53.7 µM (≈ 12.5 µg/mL) | 60.3 µM (≈ 14 µg/mL) | 53.7 µM (≈ 12.5 µg/mL) | 60.3 µM (≈ 14 µg/mL) |
| C/C=C/C=C/C(=O)N(c1ccccc1)c1ccccc1 | 38 µM (≈ 10 µg/mL) | 4.46 | 47.9 µM (≈ 12.6 µg/mL) | 50.1 µM (≈ 13.2 µg/mL) | 39.8 µM (≈ 10.5 µg/mL) | 58.9 µM (≈ 15.5 µg/mL) |
| C/C=C/C=C/C(=O)OCCC | 70.8 µM (≈ 10.9 µg/mL) | 2.31 | 70.8 µM (≈ 10.9 µg/mL) |  | 81.3 µM (≈ 12.5 µg/mL) |  |
| C/C=C/C=C/C(=O)Nc1ccccc1 | 66.1 µM (≈ 12.4 µg/mL) | 2.53 | 66.1 µM (≈ 12.4 µg/mL) |  | 74.1 µM (≈ 13.9 µg/mL) |  |
| C/C=C/C=C/C(=O)Nc1cccc(O)c1 | 53.7 µM (≈ 10.9 µg/mL) | 2.25 | 53.7 µM (≈ 10.9 µg/mL) | 89.1 µM (≈ 18.1 µg/mL) | 69.2 µM (≈ 14.1 µg/mL) | 100 µM (≈ 20.3 µg/mL) |
| C/C=C/C=C/C(=O)OC(C)C | 63.1 µM (≈ 9.73 µg/mL) | 2.26 | 63.1 µM (≈ 9.73 µg/mL) | 81.3 µM (≈ 12.5 µg/mL) | 56.2 µM (≈ 8.67 µg/mL) |  |
| C/C=C/C=C/C(=O)OCC(C)C | 74.1 µM (≈ 12.5 µg/mL) | 2.71 | 74.1 µM (≈ 12.5 µg/mL) | 100 µM (≈ 16.8 µg/mL) | 63.1 µM (≈ 10.6 µg/mL) |  |
| C/C=C/C=C/C(=O)NCc1ccccc1 | 61.7 µM (≈ 12.4 µg/mL) | 2.63 | 61.7 µM (≈ 12.4 µg/mL) | 70.8 µM (≈ 14.2 µg/mL) | 61.7 µM (≈ 12.4 µg/mL) | 100 µM (≈ 20.1 µg/mL) |
| C/C=C/C=C/C(=O)OCCCCCCC | 50.1 µM (≈ 10.5 µg/mL) | 3.9 | 58.9 µM (≈ 12.4 µg/mL) | 58.9 µM (≈ 12.4 µg/mL) | 58.9 µM (≈ 12.4 µg/mL) | 79.4 µM (≈ 16.7 µg/mL) |
| C/C=C/C=C/C(=O)OCC | 89.1 µM (≈ 12.5 µg/mL) | 1.84 | 77.6 µM (≈ 10.9 µg/mL) |  | 100 µM (≈ 14 µg/mL) |  |
| C/C=C/C=C/C(=O)Oc1cccc2cccnc12 | 12.9 µM (≈ 3.09 µg/mL) | 3.27 | 52.5 µM (≈ 12.6 µg/mL) | 12.9 µM (≈ 3.09 µg/mL) | 38 µM (≈ 9.09 µg/mL) | 12.9 µM (≈ 3.09 µg/mL) |
| C/C=C/C=C/C(=O)NCCO | 91.2 µM (≈ 14.2 µg/mL) | 0.41 | 81.3 µM (≈ 12.6 µg/mL) |  |  |  |
| C/C=C/C=C/C(=O)N(CCO)CCO | 63.1 µM (≈ 12.6 µg/mL) | 0.21 | 50.1 µM (≈ 9.98 µg/mL) | 79.4 µM (≈ 15.8 µg/mL) |  | 91.2 µM (≈ 18.2 µg/mL) |
